Results on 14 compounds are retold here after publication PMC10025185, “A continuous in silico learning strategy to identify safety liabilities in compounds used in the leather and textile industry” (Archives of Toxicology, 2023).

Data set [1] relates to androgen and oestrogen receptors. Description: ED assays of androgen and oestrogen receptors (overall experimental ED result). The format is cell-based. The procedure: The transcriptional activation of androgen receptor (AR) assays was carried out by adapting the OECD protocol 458 (OECD [2020]).
MDA-MB-453 cells (8000 cells/well) expressing an AR luciferase reporter were seeded into 384 white plates (Greiner 781098) in culture medium (DMEM (ATCC), 10% foetal bovine serum (Sigma Aldrich), 1% penicillin–streptomycin (Sigma-Aldrich), 75 µg/ml geneticin (Gibco) and incubated overnight at 37 °C 5% CO2 and 95% humidity. After this time, the cell culture medium was discarded and replaced by assay medium (DMEM (ATCC), 0.1% foetal bovine serum (Sigma-Aldrich), and 1% penicillin–streptomycin (Sigma Aldrich)).
For studying a putative agonist effect, compounds were added to the assay plate using an Echo 550 acoustic liquid handler and incubated overnight at 37 °C 5% CO2 and 95% humidity. For studying the putative antagonist effect, compounds were added using an Echo 550 acoustic liquid handler and incubated for 15 min at 37 °C 5% CO2 and 95% humidity. Then, 1 nM 5α-dihydrotestosterone (DHT) was added, and the cell plate was incubated overnight at 37 °C, 5% CO2, and 95% humidity. After compound incubation, the cell medium was removed, 5 µl of lysis buffer 1X (Promega) was added, and the cell plate was incubated with agitation 15 min at room temperature. A freeze–thaw cycle of 10 min at −80 °C and room temperature was performed. Then 25 µl of luciferase assay reagent (Promega) was added and luminescence was determined on an EnSpire plate reader (Perkin Elmer). Data was fitted to a four-parameter sigmoidal model with Prism 5.1 (Graphpad, Inc).
The transcriptional activation of oestrogen receptor (ER) assay was carried out by adapting the OECD protocol 455 (OECD [2021]) and the method of Li et al. ([2013]).
ER luciferase reporter T47D cells (5000 cells/well) were seeded into 384 white plates (Greiner 781098) in culture medium (RPMI 1640 (Thermo Fisher Scientific 52400), 10% foetal bovine serum (Sigma Aldrich F9665), 1% penicillin–streptomycin (Sigma-Aldrich P0781), 75 µg/ml Geneticin (Gibco 10131)) and incubated overnight at 37 °C and 5% CO2. The following day, the cell culture medium was discarded and replaced by assay medium (RPMI 1640 (Thermo Fisher Scientific 52,400), 0.1% foetal bovine serum (Sigma Aldrich F9665), and 1% penicillin–streptomycin (Sigma Aldrich P0781).
The assay was performed as stated before for the AR assay using 17β-estradiol as agonist instead of DHT.
ED was assessed by transactivation in vitro assays to identify agonists and antagonists of the androgen and oestrogen receptors.
Also, the experimental group analysed the endocrine-disrupting activity for the CMR compounds.

The test system of data set [2] is CHO-K1 (Chinese hamster ovary cells). Type of data set: cell-based. The procedure:
The in vitro micronucleus test is a genotoxicity test for the detection of micronuclei in the cytoplasm of interphase cells. Tests were conducted in the presence of the cytokinesis blocker cytochalasin B with three different treatment schedules: (i) short treatment for 6 h; (ii) short treatment for 6 h in the presence of an exogenous source of metabolic activation (cofactor supplemented S9 liver fraction); and (iii) extended treatment for 24 h.
CHO-K1 (Chinese hamster ovary cells, ATCC Item Number CCL-61) were cultured in DMEM F-12 containing 10% foetal bovine serum and 100 units/ml penicillin/100 μg/ml streptomycin (all from Sigma-Aldrich, St Louis, USA). Cells were seeded at 3000 cells/well in a collagen-coated 96-well plate in 100 μl. After 24 h, cells were incubated with CellTracker Orange CMTMR cellular dye solution (Invitrogen, Waltham, USA) for 1 h. Cells were then treated with compounds for 6 h, with or without S9 metabolic activation, or 24 h without S9 metabolic activation. […] After the 6-h compound treatment, cells were incubated with cytochalasin B (Alfa Aesar, Kandel, Germany) for 24 h. In case of 24-h treatment, cells were incubated with compounds in the presence of cytochalasin B and harvested after treatment. Benzo(a)pyrene, mitomycin C, and colchicine were used as positive controls for 6 h, with or without metabolic activation or 24 h treatments, respectively. […] After several washes with BupH-modified DPBS, cells were analysed in an Operetta High-Content Imaging System (PerkinElmer, Waltham, USA). […] Statistical significance was determined with the ANOVA test with significance level adjusted to p < 0.05.

For data set [3], the system named is zebrafish embryos. To be noted: in vivo. An excerpt:
In REACH, most of the mammalian tests for chemical safety assessment are related to reproductive toxicity (ECHA [2020]; Rovida and Hartung [2009]; Sellick [2011]) and consider complex molecular and cellular mechanisms determined in long-term experiments with very low throughput. To avoid the use of animals and to assay reproductive toxicity in a relevant 'non-animal' model adhering to the 3Rs rule, we used zebrafish embryos up to 120 hpf. Up to this developmental stage, the embryos are not considered animals according to European legislation (Sellick [2011]). When they reach the stage of independent feeding, zebrafish embryos become subject to regulations for animal experimentation. We performed a set of previously described experiments to cover a wide range of potential reprotoxic effects, including terato-carcinogenesis, developmental neurotoxicity, and endocrine disruption.
(§1) Zebrafish embryos obtained and maintained as described previously for toxicity determination were used to determine (I) terato-carcinogenesis assayed as previously informed (Selderslaghs et al. [2009], [2012]) with modifications. In brief, embryos were incubated for 0 hpf up to 120 hpf in the presence and absence of tested compounds. Each condition was assayed in triplicate with 12 embryos per condition per replicate. The appearance of selected characteristics and malformations with respect to normal development were quantified for the eyes, otoliths, heart, circulation, hatching, skeletal deformities, and body position. For each concentration tested, we assessed the mortality and the presence of malformations at 24, 48, 72, 96, and 120 hpf using a light microscope. When possible, the lethal effects (LC50) and terato-carcinogenic effects (EC50) were determined using the ToxRat software. Based on these values, a teratogenic index (TI) was calculated as LC50/EC50. Based on previous studies, we considered a compound to be a teratogen when TI > 2 at 120 hpf. When no TI could be calculated due to no malformations induction to a degree extensive enough to calculate the EC50 in the presence of high toxicity, the compound was considered a non-teratogen. (II) Neurotoxicity was assayed by evaluating the locomotor activity in embryos exposed to the tested compounds from 0 to 120 hpf using Zebrabox and Zebralab (ViewPoint). We tested three concentrations (24 embryos per concentration) below the NOEC to avoid readily toxic concentrations. After incubation with tested compounds for 120 hs in 96-well plates, the activity of larvae in response to transitions from dark to light was evaluated. The protocol involved an initial 10 min acclimation period inside the Zebrabox, followed by three cycles of light–dark of 10 min each. After the end of each cycle, the integrated activity of each embryo was registered. Statistical analysis was done using ANOVA, followed by the Tukey post hoc test. Differences were considered significant when p < 0.05. Dead embryos were not considered in the analysis. (III) The endocrine-disrupting effect in zebrafish embryos was assayed by real-time PCR as previously reported (Jarque et al. [2019]) with modifications. In brief, 0 hpf embryos (12 embryos per condition in triplicate) were incubated with selected compounds for up to 120 hpf. After incubation, treated (embryos incubated at the concentration right below the NOEC) and control embryos were collected in RNA later and kept at − 20°C until use. RNA was extracted from the samples using the RNeasy Mini Kit (QIAGEN) and was followed by cDNA synthesis using random primers and the AffinityScript Multi Temperature cDNA Synthesis Kit (Agilent Technologies).

Data set [4] concerns zebrafish embryos. To be noted: in vivo. As to the method: as §1, with “Technologies). Finally, real-time PCR was performed for eight target genes to obtain data on the estrogenic (cytochrome P450 family 19 subfamily A member 1: cyp19a1b, and vitellogenin: vtg1), androgenic (cytochrome P450 family 2 […]: cyp2k22, and cytosolic sulphotransferase 3: sult2st3), and thyroid hormone (thyroid peroxidase: tpo, thyroid hormone receptor alpha: tra, transthyretin: ttr, and iodothyronine deiodinase 2: dio2) effect of the tested compounds. Significant changes in gene expression between controls and treated samples were considered as a potential endocrine-disrupting effect.” for “Technologies).”
This is another data set of the same source.

Data set [5] is described as follows: logKow as a measure of bioaccumulation, extracted from public databases. The format is physicochemical. To be noted: yes/no by logKow, REACH cut off 4,5.
On the set-up of data set [6]: method as in earlier work. To be noted: ref https://comptox.epa.gov/dashboard, https://echa.europa.eu/es/information-on-chemicals, cited from earlier work.
A further data set relates to Bhas 42 cell line. Description: Bhas 42 cell transformation assay (carcinogenesis). The format is cell-based. As to the method:
This assay was carried out by adapting the in vitro Bhas 42 cell transformation assay method described in the OECD Guidance Document No. 231 ([2017]) based on the work of Sasaki et al. ([2014]).
It consists of two assays with a different test compound addition schedule to identify compounds with initiating activity (tumour initiators) or promoting activity (tumour promoters). Previously, a cell growth assay for 7 days is performed to set the assay doses of the CTA and another cell growth assay is concurrently performed to the CTA to verify that the selected doses meet the acceptance criteria for the tests.
The carcinogenesis potential of the compound was assayed by means of measuring the frequency of transformed foci (morphologically altered cells that form discrete anchorage-independent colonies) in the Bhas 42 cell line, which can be extrapolated to an assessment of carcinogenic potential. In the transformation assay, the incubation of compounds with two different treatment schedules allowed to identify the initiating or promoting carcinogenic potential of the compounds.

Where two headings read alike, the source gives them in different places.

Take `Cc1cc(N)ccc1N.O=S(=O)(O)O` [2,5-Diaminotoluene sulphate]: the Experimental result in data set [1] is “No”.
Consider `CC(Cl)C(=O)c1ccc(Cl)cc1` (centres unmarked) [2-Chloro-1-(4-chlorophenyl)propan-1-one], for which the “Micronucleus assay (M)” value in data set [2] (6 h with or without S9, 24 h without S9) is given as “Negative”.
Consider `C=Cc1ccccn1` [2-Ethenylpyridine], for which the Experimental result in data set [1] is “Yes”.
In the case of `CC1=CC(=O)[C@@H](C(C)C)CC1` [(R)-6-(isopropyl)-3-methylcyclohex-2-en-1-one], in the data set with zebrafish embryos [3], the “Reprotoxicity (R) Teratogen” value is recorded as “No”. Moreover, the “Micronucleus assay (M)” value in data set [2] was “Negative”. Besides, in the data set on zebrafish embryos [4], the “Reprotoxicity (R) Endocrine disruptor” value is reported as “No” and the “reduction of embryo integrated activity” value was “up to 80%”.
Regarding `CC(C)[C@H]1CC[C@H](C)C[C@@H]1O` [Cyclohexanol, 5-methyl-2-(1-methylethyl)-, (1S,2R,5S)-], the Experimental result in data set [1] is recorded as “No”.
As to `C=C(C)C(=O)O` [Methacrylic acid], in data set [5], the Bioaccumulation result was “No”. In addition, the “Bioaccumulation (logKow)” value in data set [6] (experimental value) was 0.93.
For the compound `COC(=O)C=Cc1ccccc1` [Methyl cinnamate], the Bioaccumulation result in data set [5] was “No”. In data set [6] (experimental value), the “Bioaccumulation (logKow)” value is 2.62.
As for `CCCCCC1C(=O)CCC1CC(=O)OC` (centres unmarked) [Methyl dihydrojasmonate], the Experimental result in data set [1] is “Yes”.
Consider `CCNC(N)=O` [N-Ethylurea], for which, in data set [5], the Bioaccumulation entry is on record as “No”. In addition, the “Bioaccumulation (logKow)” value in data set [6] (experimental value) is given as -0.74.
Regarding `C=CC(=O)NC(C)C` [N-Isopropylacrylamide], the Bioaccumulation entry in data set [5] is on record as “No”. Besides, the “Bioaccumulation (logKow)” value in data set [6] (predicted value) is 0.41.
For the compound `O=[N+]([O-])c1ccccc1` [Nitrobenzene], the Bioaccumulation result in data set [5] is “No”. Moreover, the “Bioaccumulation (logKow)” value in data set [6] (experimental value) was 1.85.
For `c1ccc2c(c1)ccc1ccccc12` [Phenanthrene], in data set [1], the Experimental result is reported as “Yes”.
Consider `O=[PH](O)O` [Phosphonic acid], for which the “Carcinogen (C)” value in the data set with Bhas 42 cell line is listed as “No”. Besides, the Experimental result in data set [1] is recorded as “No”.
Turning to `C#CCBr` [Propargyl bromide], in data set [1] (endocrine disruptor yes/no), the Experimental result is on record as “Yes”.
